{"source": "patent US12263155B2", "about": "“Combinations of monoamine oxidase inhibitors and serotonin receptor agonists and their therapeutic use” (Remedi, Inc., priority 2022, dated 2025)", "molecular_target": "T1, brain MAO-A (Rattus norvegicus, UniProt P21396)", "T1 construct": "prepared from brain homogenates of male Sprague-Dawley rats, served as the source of MAO-A enzymatic activity; from tissue", "T1 sequence (P21396 1-526)": "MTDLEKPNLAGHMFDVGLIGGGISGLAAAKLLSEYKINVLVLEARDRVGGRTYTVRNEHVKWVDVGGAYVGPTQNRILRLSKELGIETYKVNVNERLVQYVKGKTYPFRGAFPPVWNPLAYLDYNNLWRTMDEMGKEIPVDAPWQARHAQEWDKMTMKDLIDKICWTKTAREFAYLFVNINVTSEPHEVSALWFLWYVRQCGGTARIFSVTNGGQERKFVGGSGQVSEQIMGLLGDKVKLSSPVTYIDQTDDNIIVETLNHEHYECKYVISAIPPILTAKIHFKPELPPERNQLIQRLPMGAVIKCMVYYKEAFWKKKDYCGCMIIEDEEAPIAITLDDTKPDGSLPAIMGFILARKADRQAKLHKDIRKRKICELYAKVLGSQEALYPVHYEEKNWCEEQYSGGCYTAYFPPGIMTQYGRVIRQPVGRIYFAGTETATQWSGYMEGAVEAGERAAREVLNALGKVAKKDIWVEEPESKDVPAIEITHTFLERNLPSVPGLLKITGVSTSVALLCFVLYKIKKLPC", "test": "Ex vivo brain MAO-A activity after oral CX157 in rats", "set-up": "mean brain MAO-A activity (Avg.) / brain MAO-A activity, single experimental day: unit not given here", "conditions": "for mean brain MAO-A activity (Avg.): average of 4 days", "experimental": "Methods: Sprague-Dawley male rats (average weight of 190 g) were segregated into three groups for testing of the effects of CX157 on brain MAO-A enzyme activity. The three groups consisted of animals who received either 1, 5, and 10 mg/kg of CX157. Each group consisted of twenty-four subjects. Test animals were administered the doses of CX157 orally, by the gavage method in accordance with White & Scates, Drug Dev Res. 1992; 25:191-199.\nIn each drug group, four animals were sacrificed at each time period (0, 2, 4, 8, 18 and 24 hours) on four different days following drug administration. Brains were removed from the animal, bisected, frozen immediately on dry ice and placed in a −80° C. freezer. Trunk blood was collected in tubes containing sodium heparin and centrifuged at 5000 rpm for 10 minutes at 4° C. to extract the plasma. The frozen brain samples were thawed, weighed, and homogenized (3:1 tissue weight/buffer volume) in 0.25 M sucrose, containing 50 mM KHPO4(pH 7.4), with a Teflon glass homogenizer. Deprenyl HCl (at a final concentration of 100 nM) was added to each sample of homogenate to block MAO-B enzyme activity. A volume of 400 μl of homogenate was pipetted into each assay tube. A 50 μl volume of 500 μM [^14C]-5HT (specific activity of 1.6 Curies/mmol) was added to each assay tube to give a final concentration of […]. Blank assay tubes (included to correct for nonspecific deamination of [^14C]-5HT) also contained 50 μl of RO-41-1049, while total activity assay tubes (specific and nonspecific deaminating activity) contained 50 μl of buffer. The final concentration of RO-41-1049 in the blank activity tubes was 100 μM. This yielded a total assay volume of 500 μl. All assays were incubated for 7.5 minutes at 37° C. The reaction was terminated by the addition of 500 μl of 2 M citric acid. The deaminated [^14C]-5HT metabolite was extracted into a liquid scintillation fluor mixture of xylene/ethyl acetate and 0.4% PPO and quantified using a liquid scintillation spectrometer.\nThe specific activity of MAO-A in each of the samples was determined by subtraction of the values obtained in the nonspecific tubes from those in the total activity tubes. Methylcellulose was prepared by weighing 17.5 grams in a weigh boat on a Mettler balance and poured into a 4 liter flask. Two liters of distilled water was added to the 4 liter flask. The mixture was placed on a stir plate/hot plate and stirred overnight (for 24 hours) until completely dissolved. After the methylcellulose dissolved, distilled water was added until the volume in the flask reached 3.5 liters. The CX157 was prepared in a 0.5% methylcellulose/Tween 80 mixture to obtain the following dosages 1, 5, and 10 mg/kg. Initially, 52 mg of CX157 was placed in a 7 ml amber vial. A volume of 52 μl of Tween 80 was added to the amber vial containing CX157. A volume of 5.2 ml of methylcellulose was added to this vial to yield a solution of 10 mg/ml; this solution was used to deliver the 10 mg/kg dose. For the 5 mg/kg dose, a 5 mg/ml solution was prepared as follows; a volume of 1 ml of 10 mg/ml stock was mixed with 1 ml of methylcellulose and sonicated until mixed thoroughly. For the 1 mg/kg dose, a 1:10 dilution of the stock dose of 10 mg/ml was performed by pipetting 0.5 ml of 10 mg/ml stock into an amber vial with an addition of 4.5 ml of methylcellulose followed by sonication to disperse the drug into solution. All drugs were then administered on a 1 ml/kg basis with an average volume of 200 μl.", "note": "Where “and” joins values, the source holds several entries; their conditions need not be identical. Equal entries are not always repeated. Entries after “also recorded” stand apart in the source; their conditions may differ."}
{"compound": "O=S1(=O)c2ccc(F)cc2Oc2cc(OCC(F)(F)F)ccc21", "note": "[CX157, 3-fluoro-7(2,2,2-trifluorethoxy)phenoxathiine-10,10-dioxide]", "values": [{"measurement": "brain MAO-A activity, % Baseline", "setting": "1 mg/kg oral table, 0 h (baseline)", "value": 100, "unit": "%"}, {"measurement": "Mean brain MAO-A activity", "setting": "1 mg/kg oral table, 0 h (pooled baseline, N=12)", "value": 4002.0, "unit": "DPM"}, {"measurement": "mean brain MAO-A activity (Avg.)", "setting": "1 mg/kg oral, 0 h", "value": 3636}, {"measurement": "Mean brain MAO-A activity", "setting": "1 mg/kg oral, 2 h", "value": 2777.5, "unit": "DPM"}, {"measurement": "brain MAO-A activity, % Baseline", "setting": "1 mg/kg oral, 2 h", "value": 69, "unit": "%"}, {"measurement": "mean brain MAO-A activity (Avg.)", "setting": "1 mg/kg oral, 2 h", "value": 2778}, {"measurement": "Mean brain MAO-A activity", "setting": "1 mg/kg oral, 4 h", "value": 3023.3, "unit": "DPM"}, {"measurement": "brain MAO-A activity, % Baseline", "setting": "1 mg/kg oral, 4 h", "value": 76, "unit": "%"}, {"measurement": "mean brain MAO-A activity (Avg.)", "setting": "1 mg/kg oral, 4 h", "value": 3023}, {"measurement": "Mean brain MAO-A activity", "setting": "1 mg/kg oral, 8 h", "value": 5120.8, "unit": "DPM"}, {"measurement": "brain MAO-A activity, % Baseline", "setting": "1 mg/kg oral, 8 h", "value": 128, "unit": "%"}, {"measurement": "mean brain MAO-A activity (Avg.)", "setting": "1 mg/kg oral, 8 h", "value": 5121}, {"measurement": "Mean brain MAO-A activity", "setting": "1 mg/kg oral, 18 h", "value": 3993.0, "unit": "DPM"}, {"measurement": "brain MAO-A activity, % Baseline", "setting": "1 mg/kg oral, 18 h", "value": 100, "unit": "%"}, {"measurement": "brain MAO-A activity, single experimental day", "setting": "1 mg/kg oral, 18 h, Day #1-#4, 1 mg/kg", "value": "5071 and 5019 and 3071 and 2811"}, {"measurement": "mean brain MAO-A activity (Avg.)", "setting": "1 mg/kg oral, 18 h", "value": 3993}, {"measurement": "Mean brain MAO-A activity", "setting": "1 mg/kg oral, 24 h", "value": 4883.0, "unit": "DPM"}, {"measurement": "brain MAO-A activity, % Baseline", "setting": "1 mg/kg oral, 24 h", "value": 122, "unit": "%"}, {"measurement": "mean brain MAO-A activity (Avg.)", "setting": "1 mg/kg oral, 24 h", "value": 4883}, {"measurement": "brain MAO-A activity, % Baseline", "setting": "5 mg/kg oral table, 0 h (baseline)", "value": 100, "unit": "%"}, {"measurement": "Mean brain MAO-A activity", "setting": "5 mg/kg oral table, 0 h (pooled baseline, N=12)", "value": 4002.0, "unit": "DPM"}, {"measurement": "brain MAO-A activity, single experimental day", "setting": "5 mg/kg oral, 0 h, Day #1-#4, 5 mg/kg", "value": "5661 and 5499 and 3070 and 3687"}, {"measurement": "mean brain MAO-A activity (Avg.)", "setting": "5 mg/kg oral, 0 h", "value": 4479}, {"measurement": "Mean brain MAO-A activity", "setting": "5 mg/kg oral, 2 h", "value": 1495.5, "unit": "DPM"}, {"measurement": "brain MAO-A activity, % Baseline", "setting": "5 mg/kg oral, 2 h", "value": 37, "unit": "%"}, {"measurement": "mean brain MAO-A activity (Avg.)", "setting": "5 mg/kg oral, 2 h", "value": 1496}, {"measurement": "Mean brain MAO-A activity", "setting": "5 mg/kg oral, 4 h", "value": 2298.0, "unit": "DPM"}, {"measurement": "brain MAO-A activity, % Baseline", "setting": "5 mg/kg oral, 4 h", "value": 57, "unit": "%"}, {"measurement": "mean brain MAO-A activity (Avg.)", "setting": "5 mg/kg oral, 4 h", "value": 2298}, {"measurement": "Mean brain MAO-A activity", "setting": "5 mg/kg oral, 8 h", "value": 1365.5, "unit": "DPM"}, {"measurement": "brain MAO-A activity, % Baseline", "setting": "5 mg/kg oral, 8 h", "value": 34, "unit": "%"}, {"measurement": "mean brain MAO-A activity (Avg.)", "setting": "5 mg/kg oral, 8 h", "value": 1366}, {"measurement": "Mean brain MAO-A activity", "setting": "5 mg/kg oral, 18 h", "value": 2818.5, "unit": "DPM"}, {"measurement": "brain MAO-A activity, % Baseline", "setting": "5 mg/kg oral, 18 h", "value": 70, "unit": "%"}, {"measurement": "mean brain MAO-A activity (Avg.)", "setting": "5 mg/kg oral, 18 h", "value": 2818}, {"measurement": "Mean brain MAO-A activity", "setting": "5 mg/kg oral, 24 h", "value": 3442.5, "unit": "DPM"}, {"measurement": "brain MAO-A activity, % Baseline", "setting": "5 mg/kg oral, 24 h", "value": 86, "unit": "%"}, {"measurement": "mean brain MAO-A activity (Avg.)", "setting": "5 mg/kg oral, 24 h", "value": 3443}, {"measurement": "brain MAO-A activity, % Baseline", "setting": "10 mg/kg oral table, 0 h (baseline)", "value": 100, "unit": "%"}, {"measurement": "Mean brain MAO-A activity", "setting": "10 mg/kg oral table, 0 h (pooled baseline, N=12)", "value": 4002.0, "unit": "DPM"}, {"measurement": "mean brain MAO-A activity (Avg.)", "setting": "10 mg/kg oral, 0 h", "value": 3889}, {"measurement": "Mean brain MAO-A activity", "setting": "10 mg/kg oral, 2 h", "value": 3805.8, "unit": "DPM"}, {"measurement": "brain MAO-A activity, % Baseline", "setting": "10 mg/kg oral, 2 h", "value": 95, "unit": "%"}, {"measurement": "mean brain MAO-A activity (Avg.)", "setting": "10 mg/kg oral, 2 h", "value": 3806}, {"measurement": "Mean brain MAO-A activity", "setting": "10 mg/kg oral, 4 h", "value": 1893.5, "unit": "DPM"}, {"measurement": "brain MAO-A activity, % Baseline", "setting": "10 mg/kg oral, 4 h", "value": 47, "unit": "%"}, {"measurement": "mean brain MAO-A activity (Avg.)", "setting": "10 mg/kg oral, 4 h", "value": 1894}, {"measurement": "Mean brain MAO-A activity", "setting": "10 mg/kg oral, 8 h", "value": 1034.5, "unit": "DPM"}, {"measurement": "brain MAO-A activity, % Baseline", "setting": "10 mg/kg oral, 8 h", "value": 26, "unit": "%"}, {"measurement": "mean brain MAO-A activity (Avg.)", "setting": "10 mg/kg oral, 8 h", "value": 1035}, {"measurement": "Mean brain MAO-A activity", "setting": "10 mg/kg oral, 18 h", "value": 2149.8, "unit": "DPM"}, {"measurement": "brain MAO-A activity, % Baseline", "setting": "10 mg/kg oral, 18 h", "value": 54, "unit": "%"}, {"measurement": "mean brain MAO-A activity (Avg.)", "setting": "10 mg/kg oral, 18 h", "value": 2150}, {"measurement": "Mean brain MAO-A activity", "setting": "10 mg/kg oral, 24 h", "value": 1711.8, "unit": "DPM"}, {"measurement": "brain MAO-A activity, % Baseline", "setting": "10 mg/kg oral, 24 h", "value": 43, "unit": "%"}, {"measurement": "mean brain MAO-A activity (Avg.)", "setting": "10 mg/kg oral, 24 h", "value": 1712}, {"measurement": "inhibition of brain MAO-A enzyme activity after oral administration", "setting": "oral 1, 5, 10 mg/kg", "value": "dose and time dependent manner; also recorded: dose-dependent and reversible fashion"}]}
